Reference: patent US8828908B2, “Herbicidally active bicyclic 1,3-dione compounds” (Syngenta Limited, priority 2007, dated 2014)

Tests used:
Assay type in all cases: in vivo
Avena fatua (AVEFA) [1] = test: Example B post-emergence herbicidal greenhouse test; conditions: 360 h, evaluated after 15 days, 100=total damage to plant, 0=no damage
Method in brief: (§1)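 Seeds are sown in soil-filled pots and sprayed either 1 day later (pre-emergence) or after 10 days of growth (post-emergence) with the active ingredient in an aqueous formulation containing an emulsifier, solvents and a surfactant. Injury is scored after 20 further days (pre) or 15 further days (post).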

[2] = system: Digitaria sanguinalis (DIGSA); test: as above; conditions: 360 h, evaluated after 15 days, 100=total damage to plant, 0=no damage
Method in brief: as §1

[3] = system: Echinochloa crus-galli (ECHCG); test: as above; conditions: 360 h, evaluated after 15 days, 100=total damage to plant, 0=no damage
Method in brief: as §1

Lolium perenne (LOLPE) [4] = test: as above; conditions: 360 h, evaluated after 15 days, 100=total damage to plant, 0=no damage
Method in brief: as §1

[5] = system: Alopecurus myosuroides (ALOMY); test: as above; conditions: 360 h, evaluated after 15 days, 100=total damage to plant, 0=no damage
Method in brief: as §1

Setaria faberi (SETFA) [6] = test: as above; conditions: 360 h, evaluated after 15 days, 100=total damage to plant, 0=no damage
Method in brief: as §1

Avena fatua (AVEFA) [7] = test: Example B pre-emergence herbicidal greenhouse test; conditions: 480 h, evaluated after 20 days, 100=total damage to plant, 0=no damage
Method in brief: as §1

[8] = system: Digitaria sanguinalis (DIGSA); test: Example B pre-emergence herbicidal greenhouse test; conditions: 480 h, evaluated after 20 days, 100=total damage to plant, 0=no damage
Method in brief: as §1

[9] = system: Echinochloa crus-galli (ECHCG); test: Example B pre-emergence herbicidal greenhouse test; conditions: 480 h, evaluated after 20 days, 100=total damage to plant, 0=no damage
Method in brief: as §1

Lolium perenne (LOLPE) [10] = test: Example B pre-emergence herbicidal greenhouse test; conditions: 480 h, evaluated after 20 days, 100=total damage to plant, 0=no damage
Method in brief: as §1

[11] = system: Alopecurus myosuroides (ALOMY); test: Example B pre-emergence herbicidal greenhouse test; conditions: 480 h, evaluated after 20 days, 100=total damage to plant, 0=no damage
Method in brief: as §1

Setaria faberi (SETFA) [12] = test: Example B pre-emergence herbicidal greenhouse test; conditions: 480 h, evaluated after 20 days, 100=total damage to plant, 0=no damage
Method in brief: as §1

Avena fatua (AVEFA) [13] = test: Example A post-emergence herbicidal glasshouse test; conditions: 312 h, evaluated after 13 days, 100=total damage to plant, 0=no damage
Method in brief: (§2)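 Visual injury score (0 none to 100 total plant damage) recorded 13 days after spraying. Plants received an aqueous spray of compound in 50:50 acetone/water with 0.5% Tween 20, either one day after sowing or after eight days of cultivation, in pots kept under controlled glasshouse conditions.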

[14] = system: Echinochloa crus-galli (ECHCG); test: as above; conditions: 312 h, evaluated after 13 days, 100=total damage to plant, 0=no damage
Method in brief: as §2

[15] = system: Amaranthus retroflexus (AMARE); test: as above; conditions: 312 h, evaluated after 13 days, 100=total damage to plant, 0=no damage
Method in brief: as §2

[16] = system: Alopecurus myosuroides (ALOMY); test: as above; conditions: 312 h, evaluated after 13 days, 100=total damage to plant, 0=no damage
Method in brief: as §2

Setaria faberi (SETFA) [17] = test: as above; conditions: 312 h, evaluated after 13 days, 100=total damage to plant, 0=no damage
Method in brief: as §2

Avena fatua (AVEFA) [18] = test: Example A pre-emergence herbicidal glasshouse test; conditions: 312 h, Rate 250 g/ha, evaluated after 13 days, 100=total damage to plant, 0=no damage to plant
Method in brief: as §2

[19] = system: Echinochloa crus-galli (ECHCG); test: Example A pre-emergence herbicidal glasshouse test; conditions: 312 h, Rate 250 g/ha, evaluated after 13 days, 100=total damage to plant, 0=no damage to plant
Method in brief: as §2

[20] = system: Amaranthus retroflexus (AMARE); test: Example A pre-emergence herbicidal glasshouse test; conditions: 312 h, Rate 250 g/ha, evaluated after 13 days, 100=total damage to plant, 0=no damage to plant
Method in brief: as §2

[21] = system: Alopecurus myosuroides (ALOMY); test: Example A pre-emergence herbicidal glasshouse test; conditions: 312 h, Rate 250 g/ha, evaluated after 13 days, 100=total damage to plant, 0=no damage to plant
Method in brief: as §2

Setaria faberi (SETFA) [22] = test: Example A pre-emergence herbicidal glasshouse test; conditions: 312 h, Rate 250 g/ha, evaluated after 13 days, 100=total damage to plant, 0=no damage to plant
Method in brief: as §2

SMILES | pest or weed control at 125 g/ha (Avena fatua (AVEFA) [1]) | pest or weed control at 125 g/ha [2] | pest or weed control at 125 g/ha [3] | pest or weed control at 125 g/ha (Lolium perenne (LOLPE) [4]) | pest or weed control at 125 g/ha [5] | pest or weed control at 125 g/ha (Setaria faberi (SETFA) [6]) | pest or weed control at 250 g/ha (Avena fatua (AVEFA) [7]) | pest or weed control at 250 g/ha [8] | pest or weed control at 250 g/ha [9] | pest or weed control at 250 g/ha (Lolium perenne (LOLPE) [10]) | pest or weed control at 250 g/ha [11] | pest or weed control at 250 g/ha (Setaria faberi (SETFA) [12]) | pest or weed control at 250 g/ha (Avena fatua (AVEFA) [13]) | pest or weed control at 250 g/ha [14] | pest or weed control at 250 g/ha [15] | pest or weed control at 250 g/ha [16] | pest or weed control at 250 g/ha (Setaria faberi (SETFA) [17]) | pest or weed control at 250 g/ha (Avena fatua (AVEFA) [18]) | pest or weed control at 250 g/ha [19] | pest or weed control at 250 g/ha [20] | other results
CCc1ccc(-c2ccc(Cl)cc2F)cc1C1=C(O)[C@H]2CC[C@H](C2)C1=O (single isomer, unassigned) [Compound T41] | 100% | 100% | 100% | 70% | 80% | 100% | 60% | 100% | 100% | 100% | 90% | 100% | 100% | 100% | 0% | 60% | 100% | 100% | 90% | 0% | pest or weed control at 250 g/ha [21]: 60%; pest or weed control at 250 g/ha (Setaria faberi (SETFA) [22]): 100%
CCc1ccc(-c2ccc(Cl)cc2OC)cc1C1=C(O)[C@H]2CC[C@H](C2)C1=O (single isomer, unassigned) [Compound T43] | 0% | 50% | 70% | 30% | 0% | 60% | 60% | 60% | 40% | 0% | 0% | 20% | 40% | 90% | 0% | 50% | 80% | 0% | 90% | 0% | pest or weed control at 250 g/ha [21]: 0%; pest or weed control at 250 g/ha (Setaria faberi (SETFA) [22]): 30%
CCc1ccc(-c2ccc(Cl)cc2)cc1C1=C(O)[C@H]2C=C[C@H](CC2)C1=O (single isomer, unassigned) [Compound T55] | 70% | 100% | 100% | 80% | 60% | 100% | 30% | 30% | 50% | 60% | 10% | 10% | 20% | 100% | 0% | 50% | 100% | 0% | 70% | 0% | pest or weed control at 250 g/ha [21]: 0%; pest or weed control at 250 g/ha (Setaria faberi (SETFA) [22]): 90%
CCc1cc(-c2ccc(Cl)cc2)ccc1C1=C(OC(C)=O)[C@@H]2CC[C@@H](C2)C1=O [Compound P3] | 80% | 90% | 80% | 80% | 90% | 80% | 10% | 70% | 50% | 50% | 30% | 60% | 80% | 100% | 0% | 90% | 100% | 40% | 70% | 0% | pest or weed control at 250 g/ha [21]: 60%; pest or weed control at 250 g/ha (Setaria faberi (SETFA) [22]): 80%
CCc1ccc(-c2ccc(Cl)c(C)c2)cc1C1=C(O)[C@H]2CC[C@H](C2)C1=O [Compound T32, 3-(4′-chloro-4-ethyl-3′-methylbiphen-3-yl)bicyclo[3.2.1]octane-2,4-dione] | 10% | 70% | 100% | 0% | 30% | 30% | 10% | 100% | 100% | 90% | 90% | 60% | 0% | 100% | 0% | 60% | 90% | 40% | 100% | 0% | pest or weed control at 250 g/ha [21]: 30%; pest or weed control at 250 g/ha (Setaria faberi (SETFA) [22]): 20%
CCc1ccc(-c2ccc(Cl)cc2Cl)cc1C1=C(O)[C@H]2CC[C@H](C2)C1=O [Compound T44, 3-(2′,4′-dichloro-4-ethylbiphen-3-yl)bicyclo[3.2.1]octane-2,4-dione] | 90% | 100% | 100% | 30% | 60% | 100% | 10% | 80% | 50% | 10% | 0% | 70% | 90% | 100% | 0% | 90% | 100% | 20% | 90% | 0% | pest or weed control at 250 g/ha [21]: 50%; pest or weed control at 250 g/ha (Setaria faberi (SETFA) [22]): 100%
CCc1ccc(-c2ccc(Cl)cc2)cc1C1=C(O)[C@H]2CC[C@H](CC2)C1=O [Compound T54, 3-(4′-chloro-4-ethylbiphen-3-yl)bicyclo[3.2.2]nonane-2,4-dione] | 70% | 100% | 100% | 60% | 90% | 100% | 50% | 100% | 100% | 100% | 70% | 90% | 100% | 100% | 0% | 100% | 100% | 90% | 100% | 40% | pest or weed control at 250 g/ha [21]: 90%; pest or weed control at 250 g/ha (Setaria faberi (SETFA) [22]): 100%
CCc1cc(-c2ccc(Cl)cc2)ccc1C1=C(O)[C@H]2CC[C@H](C2)C1=O [Compound T59, 3-(4′-chloro-3-ethylbiphen-4-yl)bicyclo[3.2.1]octane-2,4-dione] | 30% | 100% | 100% | 80% | 90% | 100% | 70% | 90% | 100% | 80% | 80% | 100% | 90% | 100% | 30% | 100% | 100% | 70% | 100% | 0% | pest or weed control at 250 g/ha [21]: 70%; pest or weed control at 250 g/ha (Setaria faberi (SETFA) [22]): 100%
